How the values were obtained:
CCD13Lu cells = experiment: MTT assay for cell proliferation / mafosfamide sensitivity, CCD13Lu; assay type: cell-based; details: 10 μM compound + mafosfamide, FIG. 13c
SF767 cells = experiment: MTT assay for cell proliferation / mafosfamide sensitivity, SF767; assay type: cell-based; details: 10 μM inhibitor + mafosfamide

Question: Which results are given for Cc1ccc(S(=O)(=O)n2c(C)nc3ccccc32)cc1 [Compound A10]?
Answer: effect with mafosfamide (in words), CCD13Lu (CCD13Lu cells): decreased cell proliferation; chemosensitivity to mafosfamide (in words), SF767 (SF767 cells): significantly increased chemosensitivity
